Experimental data reported in US20040248887A1, “Inhibitors of cathepsin S” (IRM LLC, priority 2003, published 2004).

The compounds below were run against Cathepsin S (Homo sapiens, UniProt P25774) (assay: Cathepsin S inhibition, fluorogenic peptide substrate kinetic assay). Settings: Table II; Cathepsin S inhibition constant, pH5.5; read-out: Ki Cat. S.
Type: biochemical
In short: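 Reactions were started with 50 μM (final) acetyl-His-Pro-Val-Lys-aminocarbamoylcoumarin, and hydrolysis was followed by fluorescence (ex 380/em 450 nm). Apparent inhibition constants from enzyme progress curves were converted to Ki for competitive inhibitors using substrate concentration and Km.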

Sequence of Cathepsin S (P25774 115-331, species assumed): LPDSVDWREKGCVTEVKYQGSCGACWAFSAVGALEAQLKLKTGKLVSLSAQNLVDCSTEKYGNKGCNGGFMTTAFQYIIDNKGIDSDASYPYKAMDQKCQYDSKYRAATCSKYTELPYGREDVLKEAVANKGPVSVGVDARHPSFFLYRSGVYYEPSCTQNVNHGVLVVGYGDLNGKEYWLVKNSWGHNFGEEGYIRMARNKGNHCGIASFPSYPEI

| Structure (SMILES) | Ki |
| --- | --- |
| O=C(NCCN1CCc2cc(F)ccc21)[C@H](CC1CCCCC1)NS(=O)(=O)c1ccc(OC(F)F)cc1 [Compound 240, (S)-3-Cyclohexyl-2-(4-difluoromethoxy-benzenesulfonylamino)-N-[2-(5-fluoro-2,3-dihydro-indol-1-yl)-ethyl]-propionamide] | < 1000 nM |
| C[C@@H](CNc1cccc(F)c1F)NC(=O)[C@H](CC1CCCCC1)NC(=O)c1ccc(-c2cccc(F)c2)o1 [Compound 90, 5-(3-Fluoro-phenyl)-furan-2-carboxylic acid {2-cyclohexyl-1-(S)-[2-(2,3-difluoro-phenylamino)-1-(S)-methyl-ethylcarbamoyl]-ethyl}-amide] | < 100 nM |
| CC(C)(C)C[C@H](NC(=O)OC(C)(C)C)C(=O)N[C@@H](COCc1ccccc1)CN1CCc2cc(F)ccc21 [Compound 154, {1-(S)-[1-(R)-Benzyloxymethyl-2-(5-fluoro-2,3-dihydro-indol-1-yl)-ethylcarbamoyl]-3,3-dimethyl-butyl}-carbamic acid tert-butyl ester] | < 100 nM |
| Cc1cccc(C(=O)N[C@@H](Cc2ccccc2)C(=O)NCCN2CCc3cc(F)ccc32)c1 [Compound 205, N-((S)-1-(2-(5-fluoroindolin-1-yl)ethylcarbamoyl)-2-phenylethyl)-3-methylbenzamide] | < 1000 nM |
| Cc1cccc(S(=O)(=O)N[C@@H](CC(C)(C)C)C(=O)N[C@@H](C)CN2CCc3cc(F)ccc32)c1 [Compound 265, (S,S)-4,4-Dimethyl-2-(toluene-3-sulfonylamino)-pentanoic acid [2-(5-fluoro-2,3-dihydro-indol-1-yl)-1-methyl-ethyl]-amide] | < 100 nM |
| C[C@@H](CNc1ccc(C(=N)N)cc1)NC(=O)C(NC(=O)c1ccc(OCc2ccccc2)cc1)c1ccc(Cl)cc1Cl (mixture of isomers) [Compound 175, 4-Benzyloxy-N-(R,S)-{[2-(4-amidinophenylamino)-1-(S)-methyl-ethylcarbamoyl]-(2,4-dichloro-phenyl)-methyl}-benzamide] | < 1000 nM |
| C[C@@H](CNc1ccc(OC(F)(F)F)cc1)NC(=O)[C@H](CC1CCCCC1)NC(=O)c1cc(-c2ccc(F)cc2)no1 [Compound 146, 3-(4-Fluoro-phenyl)-isoxazole-5-carboxylic acid {2-cyclohexyl-1-(S)-[1-(S)-methyl-2-(4-trifluoromethoxy-phenylamino)-ethylcarbamoyl]-ethyl}-amide] | < 100 nM |
| COc1ccc(N[C@@H]2CCCC[C@H]2NC(=O)[C@H](CC(C)C)NC(=O)c2cccc(C)c2)cc1 (mixture of isomers) [Compound 34, N-{1-(S)-[trans-2-(4-Methoxy-phenylamino)-cyclohexylcarbamoyl]-3-methyl-butyl}-3-methyl-benzamide] | < 1000 nM |
| COc1ccc(S(=O)(=O)N2CCC(C(=O)N[C@@H](CC3CCCCC3)C(=O)NCCN3CCc4cc(F)ccc43)CC2)cc1 [Compound 57, 1-(4-Methoxy-benzenesulfonyl)-piperidine-4-carboxylic acid (S)-{2-cyclohexyl-1-[2-(5-fluoro-2,3-dihydro-indol-1-yl)-ethylcarbamoyl]-ethyl}-amide] | < 1000 nM |
| Cc1noc(C)c1S(=O)(=O)N[C@@H](CC1CCCCC1)C(=O)N[C@@H](C)CN1CCc2cc(F)ccc21 [Compound 263, (S,S)-3-Cyclohexyl-2-(3,5-dimethyl-isoxazole-4-sulfonylamino)-N-[2-(5-fluoro-2,3-dihydro-indol-1-yl)-1-methyl-ethyl]-propionamide] | < 100 nM |
| C[C@@H](CN1c2ccc(F)cc2CC1(C)C)NC(=O)[C@H](CC1CCCCC1)NC(=O)[C@H]1CCCO1 [Compound 274, Tetrahydrofuran-2-(R)-carboxylic acid {2-cyclohexyl-1-(S)-[2-(5-fluoro-2,2-dimethyl-2,3-dihydro-indol-1-yl)-1-(S)-methyl-ethylcarbamoyl]-ethyl}-amide] | < 1000 nM |
